{
  "source": "patent US20240108625A1",
  "about": "“CDK4/6 INHIBITORS AS A TREATMENT FOR CLONAL HEMATOPOIESIS” (Washington University, priority 2022, published 2024)",
  "test_system": "HSPCs bearing CH mutations",
  "assay": "Genomic analysis of CH clone expansion (change in VAF) in blood of SCLC patients randomized to carboplatin/etoposide with trilaciclib or placebo",
  "assay_type": "in vivo, human",
  "protocol": "To evaluate the effect of trilaciclib on the expansion of CH clones in patients receiving chemotherapy, the following experiments were conducted. Blood samples obtained from a randomized, placebo-controlled trial of trilaciclib in SCLC patients receiving fist-line carboplatin and etoposide chemotherapy were sequenced pre- and post-treatment.\nBlood samples were obtained from a clinical trial of SCLC patients receiving first-line carboplatin/etoposide combination chemotherapy randomized to concurrently receive the CDK4/6 inhibitor trilaciclib or placebo (FIG. 1). We performed targeted mutational analysis of genomic DNA from peripheral blood before and after five cycles of carboplatin/etoposide (˜5 months) in 59 individuals, 32 of whom received concurrent trilaciclib with each cycle of chemotherapy (FIG. 1, top row) and 27 who received placebo (FIG. 1, middle row). As a comparator group, sequential samples were obtained from 178 individuals from another longitudinal study (FIG. 1, bottom row) selected as cancer-free and matched in age and length of follow-up to the participants in the SCLC clinical trial. All samples were analyzed as described below to measure how the number of HSPCs bearing CH mutations (reflected by the variant allele frequency [VAF]) changed over time in individuals randomized to receive trilaciclib compared to placebo and to untreated healthy adults.\nA custom-targeted CH panel was developed using VariantPlex (ArcherDX), an amplicon sequencing method that leverages bi-directional primers and molecular barcodes (MBCs) to enable reliable detection of extremely low VAF variants. The CH panel included exonic regions of the nine CH genes most commonly mutated in solid tumor patients (DNMT3A, TET2, ASXL1, PPM1D, TP53, CHEK2, JAK2, SRSF2, and SF3B1).\nIn brief, following DNA fragmentation, ligation with a universal MBC adapter was performed, tagging each DNA molecule with a unique molecular index (UMI) and allowing for unidirectional amplification of the sample using gene-specific primers. The resulting libraries were sequenced using a NovaSeq 6000 instrument. The average unique coverage per sample was 20,746×. Using tumor-normal dilution series from six AML patients, we developed a custom CH variant calling pipeline integrating three variant callers (Mutect2, Vardict, LoFreq) with post-calling filtering to remove germ line variants and artifacts. A critical feature of this pipeline is the empiric estimation of variant-specific error rates using a technical panel of normals consisting of 30 blood samples from children18.\nThe distribution of mutations within genes was characterized by notable enrichments for DDR genes (PPM1D, TP53, CHEK2) relative to DTA genes. For each CH mutation, the change in VAF between the first and second time points was calculated. […]",
  "note": "Entries after “also recorded” stand apart in the source; their conditions may differ.",
  "data": [
    {"smiles": "CN1CCN(c2ccc(Nc3ncc4cc5n(c4n3)C3(CCCCC3)CNC5=O)nc2)CC1", "note": "[trilaciclib]", "values": [
      {"measurement": "growth suppression of CH clones by gene: TET2", "setting": "SCLC patients, carboplatin/etoposide, FIG. 5", "value": "largest impact"},
      {"measurement": "expansion of CH mutations in the DDR pathway (TP53, CHEK2, PPM1D) following chemotherapy (change in VAF)", "setting": "SCLC patients, concurrent with five cycles of carboplatin/etoposide (~5 months), relative to placebo group", "value": "reduced expansion following chemotherapy; also recorded: lower expansion with chemotherapy"},
      {"measurement": "growth of CH clones bearing mutations in epigenetic modifiers DTA (DNMT3A, TET2, ASXL1)", "setting": "SCLC patients, concurrent with five cycles of carboplatin/etoposide (~5 months), vs placebo", "value": "suppressed the growth of CH clones"},
      {"measurement": "carboplatin-related clonal hematopoiesis (DDR and DTA)", "setting": "carboplatin chemotherapy", "value": "inhibited carboplatin-related clonal hematopoiesis; also recorded: protects against both DDR and DTA clonal hematopoiesis"}
    ]}
  ]
}
